From patent US20230227878A1, “PROCESS FOR PREPARING SURFACTANT” (Enza Biotech AB, priority 2020, published 2023)

Columns and labels:
[1] = Foam measurement (Dynamic Foam Analyser, Kruss); format: physicochemical; details: 50 ml of 1.5 wt % solution, stirred at 3,000 rpm for 2 minutes
Method: Foaming was evaluated using a Dynamic Foam Analyser from Kruss. A volume of 50 ml of 1.5 wt % alkyl polyglucoside solution was added to the cylinder. […] PEG-80 sorbitan laurate and cocamidopropyl betaine were used as surfactant controls.

[2] = Essential oils solubility; format: physicochemical; details: 7 wt % solubilizer in water, room temperature, after 5 hours
Method: 13 wt % solution of alkyl polyglucoside in distilled water was prepared and separately mixed with lemon oil, lavender oil, tea tree oil and patchouli oil at a ratio of 1:7 (w/w), and then the mixtures were added dropwise under stirring to water to a final concentration of 1 wt % essential oil and 7 wt % alkyl polyglucoside. […] The mixtures were then left at room temperature for 5 hours and observed for phase separation. Lauryl glucoside was used as a surfactant control with both lemon oil and lavender oil.

Row | Substance | Foam height [1] [mm] | Essential oils solubility: lavender oil mixture appearance / phase separation ([2]; 1 wt % lavender oil) | Essential oils solubility: lemon oil mixture appearance / phase separation ([2]; 1 wt % lemon oil)
1 | cocamidopropyl betaine | 78 |  | 
2 | lauryl glucoside |  | white and cloudy, and had phase separated | white and cloudy, and had phase separated
